# Results as given in patent publication US8916526B2, “Flavanone derivative” (National University Corporation Okayama University, priority 2009, dated 2014).
# Tests used:
# [1] = system: Vancomycin intermediate-resistant Staphylococcus aureus Mu50; test: In vitro infectivity assay (MIC), Exp. Ex. 2-1; format: cell-based; conditions: Staphylococcus aureus, VISA; Gram-positive; microdilution, MIC after 24 h; read-out: MIC VISA Mu50
# Method: (§1) The antibacterial activities were measured based on broth dilution techniques of international standards (Clinical Laboratory Standards Institute: CLSI). The activities were shown by minimum inhibitory concentrations (MICs) determined by inoculating the above-mentioned strains at a concentration of about 10^5 […] into Mueller-Hinton broth (manufactured by Difco) containing 0.85% NaCl in 96-well microplates and incubating the plates at 35° C. for 24 hours. Measurement was carried out three times.
# (§2) The antibacterial activities of the compounds of the present invention against various strains such as vancomycin-resistant enterococci (VRE), vancomycin intermediate-resistant Staphylococcus aureus (VISA), methicillin-resistant Staphylococcus aureus (MRSA), and methicillin-sensitive Staphylococcus aureus (MSSA) were examined. Of the bacteria used in MIC measurement in this test example, clinical bacteria of MRSA (OM481 strain and OM584 strain) were supplied from Okayama University Hospital (Japan). An MRSA strain N315, a vancomycin intermediate-resistant Staphylococcus aureus (VISA) strain Mu50, and a methicillin-sensitive Staphylococcus aureus (MSSA) strain FDA 209P were used as controls. Vancomycin-resistant enterococcus (VRE) strains NCTC 12201 and FN-1 were supplied from the National Institute of Infectious Disease (Japan).
# [2] = system: Vancomycin-resistant enterococci FN-1; test: In vitro infectivity assay (MIC), Exp. Ex. 2-1; format: cell-based; conditions: Enterococcus, VRE; Gram-positive; microdilution, MIC after 24 h; read-out: MIC VRE FN-1
# Method: as §1, §2
# [3] = system: Vancomycin-resistant enterococci NCTC 12201; test: In vitro infectivity assay (MIC), Exp. Ex. 2-1; format: cell-based; conditions: Enterococcus, NCTC 12201 / VRE; Gram-positive; microdilution, MIC after 24 h; read-out: MIC VRE NCTC 12201
# Method: as §1, §2
# [4] = system: Methicillin sensitive S. aureus 209P; test: In vitro infectivity assay (MIC), Exp. Ex. 2-1; format: cell-based, Staphylococcus aureus; conditions: Staphylococcus aureus, 209P / MSSA; Gram-positive; microdilution, MIC after 24 h; read-out: MIC MSSA 209P
# Method in brief: (§3)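 CLSI broth dilution; Mueller-Hinton + 0.85% NaCl; inoculum ~10^5 CUF/[…]; 35° C, 24 h; MIC read, n=3.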
# [5] = system: Methicillin-resistant S. aureus COL; test: In vitro infectivity assay (MIC), Exp. Ex. 2-1; format: cell-based, Staphylococcus aureus; conditions: Staphylococcus aureus, MRSA; Gram-positive; microdilution, MIC after 24 h
# [6] = system: Methicillin-resistant S. aureus N315; test: In vitro infectivity assay (MIC), Exp. Ex. 2-1; format: cell-based, Staphylococcus aureus; conditions: Staphylococcus aureus, MRSA; Gram-positive; microdilution, MIC after 24 h; read-out: MIC MRSA N315
# Method in brief: as §3
# [7] = system: Methicillin-resistant S. aureus OM481; test: In vitro infectivity assay (MIC), Exp. Ex. 2-1; format: cell-based, Staphylococcus aureus; conditions: Staphylococcus aureus, MRSA; Gram-positive; microdilution, MIC after 24 h; read-out: MIC MRSA OM481
# Method in brief: as §3
# [8] = system: Methicillin-resistant S. aureus OM584; test: In vitro infectivity assay (MIC), Exp. Ex. 2-1; format: cell-based, Staphylococcus aureus; conditions: Staphylococcus aureus, MRSA; Gram-positive; microdilution, MIC after 24 h; read-out: MIC MRSA OM584
# Method in brief: as §3
# [9] = system: Streptococcus pneumoniae R6; test: In vitro infectivity assay (MIC), Exp. Ex. 2-1; format: cell-based; conditions: Streptococcus pneumoniae, R6; Gram-positive; microdilution, MIC after 24 h; read-out: MIC S. Pneumoniae R6
# Escherichia coli K-12 = test: Antibacterial activity (MIC) against Gram-negative strains, microdilution; format: cell-based; conditions: K12, MIC after 24 h, read-out: MIC (Gram-nagative) K-12
# Method in brief: (§4)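 CLSI broth microdilution in Mueller-Hinton broth with 0.85% NaCl, inoculum about 10^5 […]. Incubated 35° C for 24 hours; MIC taken as the minimum inhibitory concentration, measured three times.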
# [10] = system: Pseodomonas aeruginosa PAOI; test: as above; format: cell-based; conditions: MIC after 24 h, read-out: MIC (Gram-nagative) PAO1
# Method in brief: as §4
# E. coli DNA gyrase = target: T1, E. coli DNA gyrase (Escherichia coli, UniProt P0AES4+P0AES6); test: DNA gyrase inhibition (supercoiling kit), Exp. Ex. 2-2; format: biochemical
# T1 construct: purchased John Innes Enterprises #K0001
# T1 sequence (P0AES4 whole entry, one chain of several): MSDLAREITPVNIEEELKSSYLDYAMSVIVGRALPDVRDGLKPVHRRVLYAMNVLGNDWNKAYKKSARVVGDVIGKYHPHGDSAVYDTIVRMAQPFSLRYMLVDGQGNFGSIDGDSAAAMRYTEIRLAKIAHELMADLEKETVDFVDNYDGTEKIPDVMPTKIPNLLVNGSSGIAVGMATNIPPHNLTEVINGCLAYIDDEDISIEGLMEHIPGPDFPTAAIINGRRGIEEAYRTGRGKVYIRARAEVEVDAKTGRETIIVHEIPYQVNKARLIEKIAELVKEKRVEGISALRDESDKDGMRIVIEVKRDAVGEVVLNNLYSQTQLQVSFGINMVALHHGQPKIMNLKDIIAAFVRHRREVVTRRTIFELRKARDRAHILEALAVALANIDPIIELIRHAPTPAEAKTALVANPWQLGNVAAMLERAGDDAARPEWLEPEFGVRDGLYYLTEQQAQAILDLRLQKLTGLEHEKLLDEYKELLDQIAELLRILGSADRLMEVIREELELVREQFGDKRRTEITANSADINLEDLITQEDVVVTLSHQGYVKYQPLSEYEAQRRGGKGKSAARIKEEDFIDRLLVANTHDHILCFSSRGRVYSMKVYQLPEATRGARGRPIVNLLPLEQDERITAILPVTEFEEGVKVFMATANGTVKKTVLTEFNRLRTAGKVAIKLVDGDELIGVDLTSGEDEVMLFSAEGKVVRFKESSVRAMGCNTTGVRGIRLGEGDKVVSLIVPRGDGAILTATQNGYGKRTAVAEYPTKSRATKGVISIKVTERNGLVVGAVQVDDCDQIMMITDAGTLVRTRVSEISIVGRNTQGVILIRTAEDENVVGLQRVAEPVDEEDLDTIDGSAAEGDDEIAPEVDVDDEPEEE
# Method in brief: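 IC50 derived from gel electrophoresis separating supercoiled from relaxed DNA. Reactions ran 30 minutes at 37° C with 1 U gyrase, […] relaxed pBR322, 1 mM ATP and 4 mM MgCl2 in Tris-HCl buffer (pH 7.5), then stopped with EDTA-containing solution.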
# [11] = target: T2, Escherichia coli Topoisomerase IV (Escherichia coli, UniProt P0AFI2+P20083); test: Topoisomerase IV inhibition (decatenation kit), Exp. Ex. 2-3; format: biochemical; conditions: decatenation of kDNA, 37° C., 30 minutes; read-out: IC50 (E. coli topoisomerase IV inhibitions)
# T2 construct: purchased John Innes Enterprises
# T2 sequence (P20083 whole entry): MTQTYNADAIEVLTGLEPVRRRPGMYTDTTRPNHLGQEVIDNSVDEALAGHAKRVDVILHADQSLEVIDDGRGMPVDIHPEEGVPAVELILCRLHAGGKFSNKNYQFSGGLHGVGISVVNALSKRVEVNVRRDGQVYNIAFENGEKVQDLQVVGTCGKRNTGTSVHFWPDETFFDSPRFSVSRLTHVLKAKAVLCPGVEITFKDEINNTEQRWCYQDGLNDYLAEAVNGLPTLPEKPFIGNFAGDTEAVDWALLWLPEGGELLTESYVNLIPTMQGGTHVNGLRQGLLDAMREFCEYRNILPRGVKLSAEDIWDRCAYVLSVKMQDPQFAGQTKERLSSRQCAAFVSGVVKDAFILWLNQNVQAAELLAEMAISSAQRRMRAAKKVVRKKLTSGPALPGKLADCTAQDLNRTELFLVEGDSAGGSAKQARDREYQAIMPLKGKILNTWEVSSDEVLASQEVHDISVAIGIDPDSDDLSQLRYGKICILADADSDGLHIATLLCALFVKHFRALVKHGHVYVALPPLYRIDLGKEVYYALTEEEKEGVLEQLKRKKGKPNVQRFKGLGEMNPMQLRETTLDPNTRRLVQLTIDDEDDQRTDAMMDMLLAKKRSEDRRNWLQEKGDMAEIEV
# T2 sequence (P0AFI2 whole entry): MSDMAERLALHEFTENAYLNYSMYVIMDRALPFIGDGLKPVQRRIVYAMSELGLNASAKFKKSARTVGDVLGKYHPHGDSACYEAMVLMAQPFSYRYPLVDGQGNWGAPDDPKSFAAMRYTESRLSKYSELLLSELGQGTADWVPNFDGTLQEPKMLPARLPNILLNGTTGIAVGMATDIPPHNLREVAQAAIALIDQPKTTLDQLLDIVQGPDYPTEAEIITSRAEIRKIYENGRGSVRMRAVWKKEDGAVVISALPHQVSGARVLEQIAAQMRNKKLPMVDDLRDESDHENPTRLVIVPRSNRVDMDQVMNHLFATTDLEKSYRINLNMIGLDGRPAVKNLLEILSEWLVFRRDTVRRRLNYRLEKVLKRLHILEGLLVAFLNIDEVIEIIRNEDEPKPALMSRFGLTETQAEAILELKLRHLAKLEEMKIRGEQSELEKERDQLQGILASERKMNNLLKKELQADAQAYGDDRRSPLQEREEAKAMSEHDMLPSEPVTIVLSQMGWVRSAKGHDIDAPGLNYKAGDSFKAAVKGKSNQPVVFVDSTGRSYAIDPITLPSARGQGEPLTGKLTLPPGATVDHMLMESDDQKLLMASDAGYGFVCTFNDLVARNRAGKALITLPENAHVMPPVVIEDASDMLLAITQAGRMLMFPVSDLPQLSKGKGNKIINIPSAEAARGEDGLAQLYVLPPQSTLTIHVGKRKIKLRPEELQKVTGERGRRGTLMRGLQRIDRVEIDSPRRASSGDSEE
# Method: (§5) Staphylococcus aureus Topoisomerase IV and Escherichia coli Topoisomerase IV were purchased from John Innes Enterprises. 1 unit of topoisomerase IV was cultured with 200 ng of kinetoplast DNA (kDNA) in 30 L of a reaction solution at 37° C. for 30 minutes under the conditions of 50 mM Tris-HCl (pH 7.5) (S. aureus)/50 mM HEPES-KOH (pH 7.6) (E. coli), 5 mM MgCl2 (S. aureus)/5 mM magnesium acetate (E. coli), 350 mM potassium glutamate (S. aureus)/100 mM potassium glutamate (E. coli), 5 mM dithiotheri (S. aureus)/10 mM dithiotheri (E. coli), 1.5 mM ATP (S. aureus)/1 mM ATP (E. coli), and 40% (w/v) glycerol. The reactions were stopped by adding 8 L of a reaction stop solution (40% sucrose, 100 mM Tris.HCl (pH 7.5), 1 mM EDTA, 0.5 mg/ml bromophenol blue). Agarose gel (1.0%) was poured into TAE (40 mM Tris acetate, 2 mM EDTA).
# [12] = target: T3, Staphylococcus aureus Topoisomerase IV (Staphylococcus aureus, UniProt P0C1S7+P0C1U9); test: as above; format: biochemical
# T3 construct: purchased John Innes Enterprises
# T3 sequence (P0C1U9 whole entry): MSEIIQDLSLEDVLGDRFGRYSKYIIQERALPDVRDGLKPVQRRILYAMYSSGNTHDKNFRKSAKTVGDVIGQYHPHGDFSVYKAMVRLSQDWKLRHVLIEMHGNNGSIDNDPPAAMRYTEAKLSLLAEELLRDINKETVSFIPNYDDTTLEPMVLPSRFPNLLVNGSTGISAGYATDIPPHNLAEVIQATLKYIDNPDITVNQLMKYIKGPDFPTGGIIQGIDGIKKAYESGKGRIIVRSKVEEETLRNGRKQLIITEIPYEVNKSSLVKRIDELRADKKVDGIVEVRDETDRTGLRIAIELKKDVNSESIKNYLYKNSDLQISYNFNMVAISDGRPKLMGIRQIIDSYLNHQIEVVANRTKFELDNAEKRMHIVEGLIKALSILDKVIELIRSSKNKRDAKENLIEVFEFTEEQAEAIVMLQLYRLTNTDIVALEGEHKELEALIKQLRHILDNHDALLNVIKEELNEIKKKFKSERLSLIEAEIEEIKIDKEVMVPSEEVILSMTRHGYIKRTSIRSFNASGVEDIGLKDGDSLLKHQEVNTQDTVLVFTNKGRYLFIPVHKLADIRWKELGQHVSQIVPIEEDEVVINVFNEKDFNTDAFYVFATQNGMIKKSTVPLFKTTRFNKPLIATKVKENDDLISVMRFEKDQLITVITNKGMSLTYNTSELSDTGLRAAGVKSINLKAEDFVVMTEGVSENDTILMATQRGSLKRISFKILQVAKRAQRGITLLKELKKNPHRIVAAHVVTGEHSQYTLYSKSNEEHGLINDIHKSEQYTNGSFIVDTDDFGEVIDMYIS
# T3 sequence (P0C1S7 whole entry): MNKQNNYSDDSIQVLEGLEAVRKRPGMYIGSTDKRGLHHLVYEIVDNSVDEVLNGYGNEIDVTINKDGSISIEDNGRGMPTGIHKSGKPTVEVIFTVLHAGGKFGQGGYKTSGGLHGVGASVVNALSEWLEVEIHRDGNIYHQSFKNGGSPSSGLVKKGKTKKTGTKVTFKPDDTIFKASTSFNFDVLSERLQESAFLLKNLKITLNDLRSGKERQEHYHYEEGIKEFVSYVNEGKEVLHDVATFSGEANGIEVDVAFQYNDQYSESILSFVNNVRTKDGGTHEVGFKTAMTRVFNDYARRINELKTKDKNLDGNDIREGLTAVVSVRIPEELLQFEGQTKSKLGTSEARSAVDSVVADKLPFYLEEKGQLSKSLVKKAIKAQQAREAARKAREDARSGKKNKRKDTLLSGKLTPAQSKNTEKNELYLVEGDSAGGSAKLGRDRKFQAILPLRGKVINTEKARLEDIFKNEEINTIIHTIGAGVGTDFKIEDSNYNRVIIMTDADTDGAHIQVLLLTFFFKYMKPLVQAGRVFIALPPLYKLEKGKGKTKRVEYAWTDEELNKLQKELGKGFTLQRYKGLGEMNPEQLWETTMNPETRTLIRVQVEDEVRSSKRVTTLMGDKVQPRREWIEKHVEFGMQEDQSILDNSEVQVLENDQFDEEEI
# Method: as §5
# MRSA N315 = test: In vitro infectivity assay (MIC), broth dilution, Exp. Ex. 1-1; format: cell-based, Staphylococcus aureus; conditions: Staphylococcus aureus; MRSA N315; Mueller-Hinton broth, 35° C., 24 hours; read-out: MIC MRSA N315
# Method: as §1
# (§6) The antibacterial activities of the compounds of the present invention against various strains such as methicillin-resistant Staphylococcus aureus (MRSA), vancomycin intermediate-resistant Staphylococcus aureus (VISA), methicillin-sensitive Staphylococcus aureus (MSSA), and vancomycin-resistant enterococci (VRE) were examined. Of the bacteria used in MIC measurement in this test example, clinical bacteria of MRSA (OM481 strain and OM584 strain) were supplied from Okayama University Hospital (Japan). An MRSA strain N315, a vancomycin intermediate-resistant Staphylococcus aureus (VISA) strain Mu50, and a methicillin-sensitive Staphylococcus aureus (MSSA) strain FDA 209P were used as controls. Vancomycin-resistant enterococcus (VRE) strains NCTC 12201 and FN-1 were supplied from the National Institute of Infectious Disease (Japan).
# MRSA OM481 = test: as above; format: cell-based, Staphylococcus aureus; conditions: Staphylococcus aureus; MRSA OM481; Mueller-Hinton broth, 35° C., 24 hours; read-out: MIC MRSA OM481
# Method: as §1, §6
# MRSA OM58 = test: as above; format: cell-based, Staphylococcus aureus; conditions: Staphylococcus aureus; MRSA OM58; Mueller-Hinton broth, 35° C., 24 hours; read-out: MIC MRSA OM58
# Method: as §1, §6
# MSSA FDA 209P = test: as above; format: cell-based, Staphylococcus aureus; conditions: Staphylococcus aureus; MSSA FDA 209P; Mueller-Hinton broth, 35° C., 24 hours; read-out: MIC MSS 209P
# Method: as §1, §6
# VISA Mu50 = test: as above; format: cell-based, Staphylococcus aureus; conditions: Staphylococcus aureus; VISA Mu50; Mueller-Hinton broth, 35° C., 24 hours; read-out: MIC VISA Mu50
# Method: as §1, §6
# VRE FN-1 = test: as above; format: cell-based, enterococci; conditions: Enterococcus; VRE FN-1; Mueller-Hinton broth, 35° C., 24 hours; read-out: MIC VRE FN-1
# Method: as §1, §6
# VRE NCTC12201 = test: as above; format: cell-based, enterococci; conditions: Enterococcus; VRE NCTC12201; Mueller-Hinton broth, 35° C., 24 hours; read-out: MIC VRE NCTC12201
# Method: as §1, §6
# [13] = target: T4, DNA gyrase of Escherichia coli (Escherichia coli, UniProt P0AES4+P0AES6); test: DNA gyrase inhibition (supercoiling assay kit), Exp. Ex. 1-2; format: biochemical; conditions: E. coli DNA gyrase supercoiling, relaxed pBR322, 37° C., 30 minutes; read-out: Gyrase inhibitory activity IC50 (converted)
# T4 construct: purchased John Innes Enterprises #K0001
# T4 sequence (P0AES4 whole entry, one chain of several): as the sequence (P0AES4 whole entry, one chain of several) above
# Method: As a kit for measurement of DNA gyrase of Escherichia coli, a product purchased from John Innes Enterprises (Gyrase Supercoiling assay kit #K0001) was used. Relaxed DNA was modified with gyrase into supercoiled DNA, and reaction products were separated by electrophoresis depending on the sizes of the molecular weights to examine anti-gyrase effects (IC50). One unit (1 U) of DNA gyrase and […] of relaxed pBR322 DNA were added to […] of the reaction solution, and the mixture was allowed to react at 37° C. for 30 minutes in the presence of 35 mM Tris-HCl (pH 7.5), 24 mM KCl, 4 mM MgCl2, 2 mM DTT, 1.8 mM spermidine, 1 mM ATP, 6.5% (w/v) glycerol, and 0.1 mg/ml BSA. The reactions were stopped using […] of a reaction stop solution (40% sucrose, 100 mM Tris-HCl (pH 7.5), 1 mM EDTA, 0.5 mg/ml bromophenol blue).
smiles,measurement,setting,value
"CCOc1ccc(C(=O)OC[C@H]2O[C@@H](Oc3c(-c4ccc(O)c(O)c4)oc4cc(O)cc(O)c4c3=O)[C@H](OC(=O)c3ccc(OCC)cc3)[C@@H](O)[C@H]2O)cc1 [Compound 14a, 2-(3″,4″-Dihydroxyphenyl)-5,7-dihydroxy-3-β-D-[2″,6″-di-O-(4-ethoxybenzoyl)]galactosyl-4H-chromen-4-one]",MIC,[1],4 µg/mL
same,MIC,[2],8 µg/mL
same,MIC,[3],8 µg/mL
same,MIC,[4],4 µg/mL
same,MIC,[5],16 µg/mL
same,MIC,[6],8 µg/mL
same,MIC,[7],4 µg/mL
same,MIC,[8],4 µg/mL
same,MIC,[9],4 µg/mL
same,MIC,Escherichia coli K-12,> 128 µg/mL
same,MIC,[10],> 128 µg/mL
same,IC50,E. coli DNA gyrase,0.43 µM
same,IC50,[11],7.33 µM
same,IC50,[12],1.78 µM
same,melting point,,108 to 110 °C
"CCCc1ccc(C(=O)O[C@H]2[C@H](Oc3c(-c4ccc(O)c(O)c4)oc4cc(O)cc(O)c4c3=O)O[C@H](CO)[C@@H](O)[C@@H]2OC(=O)c2ccc(CCC)cc2)cc1 [Compound 15f, 2-(3′,4′-Dihydroxy)-5,7-dihydroxy-3-β-D-(2″,3″-di-p-propylbenzoyloxy)glucosyl-4H-chromen-4-one]",MIC,MRSA N315,8 µg/mL
same,MIC,MRSA OM481,32 µg/mL
same,MIC,MRSA OM58,32 µg/mL
same,MIC,MSSA FDA 209P,8 µg/mL
same,MIC,VISA Mu50,16 µg/mL
same,MIC,VRE FN-1,8 µg/mL
same,MIC,VRE NCTC12201,8 µg/mL
same,IC50,[13],13.2 µM
same,melting point,,152 to 153 °C
